Laboratory results reported in patent US7524851B2 (Robert Bosch Gesellschaft fur Medizinische Forschung (RBMF), priority 2003, dated 2009).

What was measured:
[1] = system: primary CD4+ T lymphocytes; experiment: Blocking of caspase-8 and caspase-9 activity in 6-MP-induced apoptosis; type: cell-based, human; settings: 10 μM inhibitor; FACS after 5 days
Method: Blocking of caspase-8 and caspase-9 activity: Primary CD4^+ T lymphocytes from peripheral blood were isolated as described above and stimulated with antibodies to CD3 and CD28 in the presence or absence of indicated amounts of N-acetyl-Leu-Glu-His-Asp-aldehyde (Biomol), a reversible inhibitor of caspase-9, or Ac-Ile-Glu-Thr-Asp-aldehyde (Bachem; Heidelberg, Germany), an inhibitor of caspase-8. Apoptosis was determined by FACS analysis after 5 days of cell culture.

[2] = Stability of thioguanosine phosphates in patient blood samples; type: in vitro ADME, human
Method: Stability of the thioguanosine phosphates in blood samples was examined by storing blood samples from patients for up to 5 days at ambient temperature. RBC were isolated after the specified storage time and frozen at −80° C. until analysis.

[3] = Interconversion of TGDP and TGTP in spiked blank RBC during sample work-up; type: in vitro ADME, human
[4] = as above; type: in vitro ADME, human; remark: listed apart in the source
Method: Calibration samples and controls were prepared as described in Rabel et al., supra, with minor modifications. Known amounts of 6-thioguanosine phosphates were added to a mixture of EDTA and 10 μl of DTT to give a final volume of 150 μl. Finally, 100 μl of blank RBC were added and the mixture thoroughly homogenized by vortex mixing. Sample preparation was performed as described above. Calibration curves covered the range of 10 to 50 pmol for TGMP, 10 to 100 pmol for TGDP, and 20 to 400 pmol for TGTP per sample referred to 100 μl of packed blank RBC. Standard curves were obtained by linear regression using peak areas versus concentrations. Because of the partial conversion of TGDP to TGTP and vice versa, both peak areas were summed up. In addition, combinations of 5 to 20 percent of TGDP per sum of TGDP and TGTP were prepared.
The percentage of conversion of TGDP to TGTP and of TGTP to TGDP was assessed using three sets of TGDP and TGTP calibrators prepared with different RBC.

[5] = system: primary CD4+ T lymphocytes; experiment: Annexin V/propidium iodide FACS apoptosis of stimulated primary blood CD4+ T lymphocytes; type: cell-based, human; settings: anti-CD3, anti-CD28, rIL-2; 4-5 days; at least comparable to 6-MP
Description: Isolation of primary CD4^+ T lymphocytes and lamina propria cells: Human peripheral blood mononuclear cells (PBMCs) from healthy volunteers (25-42 years of age) and patients with Crohn's disease (31-65 years of age) were isolated using Ficoll-Hypaque gradients. PBMCs were further purified using CD4 monoclonal antibodies attached to immunomagnetic beads according to the manufacturer's protocol, followed by treatment with Detachabead (Dynal; Oslo, Norway). In some cases, CD4^+ T cells were further separated by negative selection techniques using CD45RO or CD45RA monoclonal antibodies (PharMingen; Heidelberg, Germany) and immunomagnetic beads (Dynal). […] Lamina propria mononuclear cells (LPMCs) from patients with IBD were isolated from gut specimens using a short-term (5-minute) digestion protocol with collagenase V, hyaluronidase (Sigma-Aldrich; St. Louis, Mo., USA), and DNase (Roche; Mannheim, Germany), as recently described in detail in Holtmann et al., Eur. J. Immunol. 32:3142-3151 (2002). Briefly, specimens were washed in calcium- and magnesium-free HBSS (HBSS-CMF), cut into 0.5-cm pieces, and incubated twice in HBSS containing EDTA (0.37 mg/ml) and DTT (0.145 mg/ml) at 37° C. for 15 minutes, followed by subsequent digestion for 5 minutes with collagenase V 400 (1 mg/ml), deoxyribonuclease (0.1 mg/ml DNase), and hyaloronidase (0.1 mg/ml) in a shaking incubator at 37° C. The digested tissue was washed twice in RPMI medium containing 10% FCS and centrifuged. The tissue was finally mechanically homogenized (DAKO homogenizer; Hamburg, Germany) for 4 minutes, and cells were filtered through a sterile 40-μm cell strainer (Falcon; San Diego, Calif., USA).
Such CD28 costimulation is known to prevent apoptosis of primary T cells during T cell receptor (TCR) stimulation through activation of bcl-x, and NF-κB (Noel et al., J. Immunol. 157:636-647 (1996); Radvanyi et al., J. Immunol. 156:1788-1798 (1996); Khoshnan et al., J. Immunol. 165:1743-1754 (2000)). […] In addition, recombinant IL-2 (R&D Systems; Wiesbaden, Germany) was used at a final concentration of 40 U/ml in all experiments. Lamina propria T lymphocytes were stimulated with antibodies to CD2 (4 μg/ml; Immunotech; Marseille, France) and CD28 (1 μg/ml). […] To block CD95L-mediated (FasL-mediated) apoptosis, the NOK-1 antibody (4 μg/ml, PharMingen) was used whose Fab fragments bind to human CD95L (FasL) (Jodo et al., J. Immunol. 165:5487-5494 (2000)). Recombinant human FasL (Alexis Biochemicals; Heidelberg, Germany) was used as a positive control for the NOK-1 antibody (10 μg/ml).
For FACS analysis, apoptotic cells were detected by staining with annexin V and propidium iodide using the Annexin V FITC Apoptosis Detection Kit I (PharMingen) (Atreya et al., Nat. Med. 6:583-588 (2000)). In brief, T cells were washed twice in PBS, and the pellet was resuspended in annexin V binding buffer (PharMingen) at a concentration of 10^6 cells per milliliter. Annexin V FITC and propidium iodide were added (5 ill of each per 10^5 cells). Samples were gently mixed and incubated for 15 minutes at room temperature in the dark before FACS analysis. To verify the results obtained with the annexin V/propidium iodide staining, analysis of T cells displaying DNA fragmentation was also determined by the Nicoletti technique, as described in (Nicoletti et al., J. Immunol. Methods 139:271-279 (1991)). 10^6 T cells were fixed in 70% ethanol, washed once in HBSS, resuspended in 1 ml of HBSS and 1 ml of phosphate citric acid buffer (0.2 mol/l Na2PO4 and 0.004 mol/l citric acid [pH 7.8]), and incubated at room temperature for 5 minutes. After centrifugation, cells were resuspended in 1 ml of HBSS containing 20 μg/ml propidium iodide and 10 U DNase-free RNase A and incubated at room temperature for 30 minutes. Finally, cells were analyzed on a FACScan flow cytometer. Because of the fragmentation of DNA, apoptotic cells appear as hypodiploid in the DNA histogram.

Ras = Ras activation assay (GTP-bound Ras, Raf RBD pull-down); type: cell-based, human; settings: primary T cells
Method: (§1) Cell lysates were incubated with 10 μg/ml PAK-1 agarose (Rac assays) or 10 μg/mg Raf RBD agarose (Ras assay) for 60 minutes (Rac assays) or 30 minutes (Ras assays) at 4° C. Agarose beads were collected by centrifugation followed by denaturation, boiling of the samples, and SDS-PAGE analysis.

Rac1 = Rac1 activation assay (GTP-bound Rac1, PAK pull-down); type: cell-based, human; settings: primary T cells, 3 days
Method: as §1

[6] = Stability during storage of RBC at −80° C.; type: in vitro ADME, human
Method: Stability during storage of RBC at −80° C. was investigated in samples from 18 patients. RBC which were analyzed within one week after isolation were compared with RBC stored for up to 14 weeks.

[7] = Stability of thioguanosine phosphates in extracted samples; type: physicochemical
Description: Stability of thioguanosine phosphates in extracted samples was investigated by storage of extracted samples from 12 patients before oxidation and after oxidation for 14 days and comparing the results with the same samples analyzed immediately after oxidation.

Recombinant Ras = experiment: Competition of [3H]GTP binding to recombinant Ras; settings: 0-500 μM, Raf RGD pull-down, scintillation counting
Method: (§2) Rac and Ras activation assays: The levels of Rac1- and Ras-bound GTP were determined by immunoblot techniques (Upstate Biotech; London, United Kindom). […] Cell lysates were incubated with 10 μg/ml PAK-1 agarose (Rac assays) or 10 μg/mg Raf RBD agarose (Ras assay) for 60 minutes (Rac assays) or 30 minutes (Ras assays) at 4° C. Agarose beads were collected by centrifugation followed by denaturation, boiling of the samples, and SDS-PAGE analysis. Proteins were transferred to nitrocellulose membranes and incubated with 1 μg/ml murine anti-human Rac1 or anti-human Ras (clone Ras10) antibodies overnight at 4° C., followed by detection with goat anti-mouse HRP-conjugated IgG (1:1000 dilution) and the ECL detection system. To analyze the capacity of TGTP to bind to Rac1 or Ras, chemically synthesized TGTP (obtained from Jena Bioscience, Jena, Germany) was used. Recombinant Rac1 or Ras was incubated with radiolabeled GTP ([^3H]GTP, Amersham) and increasing amounts of TGTP (0-500 μM) followed by Rac1 and Ras pull-down through PAK and Raf RGD and analysis of [^3H]GTP-bound Rac1 or Ras by scintillation counting.

Recombinant Rac1 = Recombinant Rac1 (Homo sapiens, UniProt P63000); experiment: Competition of [3H]GTP binding to recombinant Rac1; settings: 0-500 μM, PAK pull-down, scintillation counting
Method: as §2

[8] = system: primary CD4+ T lymphocytes; experiment: Mitochondrial membrane potential (JC-1, FACS); settings: positive control, 50 μM for 18 hours
[9] = 5 days of storage of blood at ambient temperature
[10] = more than 10 different blank RBC

Molecule: Ac-IETD-aldehyde [acetyl-IETD-CHO]
- effect on 6-MP-induced apoptosis of primary T lymphocytes [1]: lesser effects

Molecule: Nc1nc2c(ncn2[C@@H]2O[C@H](COP(=O)(O)O)[C@@H](O)[C@H]2O)c(=S)[nH]1 [TGMP, 6-thioguanosine monophosphate]
- amount of TGMP as share of total thioguanosine phosphates [2, 9]: more than 70%

Molecule: N-acetyl-Leu-Glu-His-Asp-aldehyde (Ac-LEHD-aldehyde; SMILES CC(=O)N[C@@H](CC(C)C)C(=O)N[C@@H](CCC(=O)O)C(=O)N[C@@H](Cc1c[nH]cn1)C(=O)N[C@H](C=O)CC(=O)O) [acetyl-LEHD-CHO]
- effect on 6-MP-induced apoptosis of primary T lymphocytes [1]: suppressed 6-MP-induced apoptosis

Molecule: Nc1nc2c(ncn2[C@@H]2O[C@H](COP(=O)(O)OP(=O)(O)O)[C@@H](O)[C@H]2O)c(=S)[nH]1 [TGDP, 6-thioguanosine diphosphate]
- Area % of calibrator added, area calibrator × 100/(area TGTP + area TGDP), mean (n = 6) ([3]; 0.9% NaCl): 100.0%
- conversion of TGDP ([3]; 0.9% NaCl): did not show any conversion
- conversion of TGDP to TGTP [3, 10]: 6-15%
- change of amount of TGDP ([2]; up to 5 days of storage of blood at ambient temperature): did not change significantly
- Area % of calibrator added, area calibrator × 100/(area TGTP + area TGDP), mean (n = 6) ([4]; spiked RBC 1): 91.6%
- Area % of calibrator added, area calibrator × 100/(area TGTP + area TGDP), mean (n = 6) ([4]; spiked RBC 2): 92.6%
- Area % of calibrator added, area calibrator × 100/(area TGTP + area TGDP), mean (n = 6) ([4]; spiked RBC 3): 92.8%
- conversion of TGDP to TGTP ([4]; spiked samples from three healthy volunteers): 7-8%

Molecule: Nc1nc2nc[nH]c2c(=S)[nH]1 [6-TG, 6-thioguanine]
- apoptosis of primary blood CD4+ T lymphocytes [5]: marked apoptosis
- activation of Ras (GTP-bound Ras) (Ras): fail to modulate
- CD28 costimulation induced Rac1 activation (GTP-bound Rac1) (Rac1): strongly suppressed

Molecule: Nc1nc2c(ncn2[C@@H]2O[C@H](COP(=O)(O)OP(=O)(O)OP(=O)(O)O)[C@@H](O)[C@H]2O)c(=S)[nH]1 [TGTP, 6-thioguanosine triphosphate]
- Area % of calibrator added, area calibrator × 100/(area TGTP + area TGDP), mean (n = 6) ([3]; 0.9% NaCl): 95.6%
- conversion of TGTP to TGDP [3, 10]: 6-20%
- TGDP found after sample work-up ([3]; saline samples spiked with TGTP): about 5%
- decrease of the proportion of TGTP ([6]; RBC from 18 patients at −80° C. for 8 to 14 weeks, thawed twice): 7.6±7.6%
- effect of repeated thawing and freezing of RBC samples ([6]; dephosphorylation of TGTP to TGDP): progression in dephosphorylation
- reduction of the proportion of TGTP ([7]; non-oxidized extracts kept 14 days at ambient temperature before oxidation, average (range from −5 to −12%)): 7%
- decrease of TGTP proportion ([7]; oxidized samples stored for 14 days (range from −6 to −13%)): approximately 8%
- competition with GTP for recombinant Ras / [3H]GTP-bound Ras (Recombinant Ras): did not significantly compete
- competition with GTP for recombinant Ras / [3H]GTP-bound Ras (Recombinant Ras; listed as 6-Thio-GTP): little effect
- binding to recombinant Rac1 / suppression of [3H]GTP-bound Rac1 (Recombinant Rac1): able to bind to recombinant Rac1 under in vitro conditions (although with lower affinity than GTP)
- binding to recombinant Rac1 / suppression of [3H]GTP-bound Rac1 (Recombinant Rac1; listed as 6-Thio-GTP): concentration-dependent suppression
- TGTP recovered [2, 9]: about 5%
- change of TGTP on storage of blood samples ([2]; one day at ambient temperature): marked decrease
- Area % of calibrator added, area calibrator × 100/(area TGTP + area TGDP), mean (n = 6) ([4]; spiked RBC 1): 90.3%
- Area % of calibrator added, area calibrator × 100/(area TGTP + area TGDP), mean (n = 6) ([4]; spiked RBC 2): 93.9%
- Area % of calibrator added, area calibrator × 100/(area TGTP + area TGDP), mean (n = 6) ([4]; spiked RBC 3): 82.2%
- conversion of TGTP to TGDP ([4]; subject 1): 9.7%
- conversion of TGTP to TGDP ([4]; subject 2): 6.1%
- conversion of TGTP to TGDP ([4]; third sample): ~18%

Molecule: N#CC(C#N)=NNc1ccc(OC(F)(F)F)cc1 [FCCP, carbonylcyanide-4-(trifluoromethoxy)-phenylhydrazone]
- ΔΨm in primary CD4+ T cells [8]: marked reduction of ΔΨm
